Results from publication PMC3115495 (Bioorganic & medicinal chemistry letters, 2011).
pKi: −log10 of the molar value.

Key:
KOR-1 = KOR-1 (Homo sapiens, UniProt P41145); test: ^125I-opioid saturation studies in KOR-1/CHO cells; format: binding; settings: at the highest concentrations of radioligands used
[1] = molecular target: mu opioid receptor (MOR-1) (UniProt P42866); test: radioligand binding
Chain of mu opioid receptor (MOR-1) (P42866 whole entry): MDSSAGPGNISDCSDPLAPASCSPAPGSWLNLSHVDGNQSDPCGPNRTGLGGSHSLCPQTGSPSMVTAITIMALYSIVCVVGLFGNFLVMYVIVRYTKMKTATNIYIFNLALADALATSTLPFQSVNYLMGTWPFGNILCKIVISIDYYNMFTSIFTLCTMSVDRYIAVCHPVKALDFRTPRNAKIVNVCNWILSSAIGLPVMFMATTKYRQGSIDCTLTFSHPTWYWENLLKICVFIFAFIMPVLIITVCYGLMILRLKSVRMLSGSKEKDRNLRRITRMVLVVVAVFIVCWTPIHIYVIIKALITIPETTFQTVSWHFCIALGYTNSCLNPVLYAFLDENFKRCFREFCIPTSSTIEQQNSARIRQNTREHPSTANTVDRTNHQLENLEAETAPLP

Chain of KOR-1 (P41145 whole entry, species assumed): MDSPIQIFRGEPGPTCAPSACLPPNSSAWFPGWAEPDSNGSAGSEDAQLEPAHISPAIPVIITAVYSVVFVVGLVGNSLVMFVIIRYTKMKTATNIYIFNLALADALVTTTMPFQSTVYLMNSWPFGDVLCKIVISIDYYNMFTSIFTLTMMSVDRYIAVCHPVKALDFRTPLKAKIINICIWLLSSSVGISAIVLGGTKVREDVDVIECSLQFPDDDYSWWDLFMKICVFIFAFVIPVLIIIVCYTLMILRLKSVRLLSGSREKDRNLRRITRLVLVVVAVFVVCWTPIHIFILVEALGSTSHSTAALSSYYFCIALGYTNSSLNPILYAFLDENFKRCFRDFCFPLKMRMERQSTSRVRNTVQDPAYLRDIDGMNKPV

Compound | Specific binding in KOR-1/CHO cells (KOR-1) | pKi [1]
CN1CC[C@]23c4c5ccc(O)c4O[C@H]2[C@H](NC(=O)c2cccc([125I])c2)CC[C@@]3(O)[C@H]1C5 [^125IBOxyA (20)] | No specific | 
[-DAla^2,MePhe^4,Gly(ol)^5]enkephalin (peptide) |  | 8.81
